Measured values from PubChem BioAssay AID256 (DTP/NCI, 2004).
“And” between values parts separate entries of the source, which are not always exact repeats. Equal values may be shown once. Inconclusive results and toxic doses are left out. How the source made its calls: active means survival T/C of 150% or more; inactive means T/C below 125% in these data.

Test system: CD2F1 mice, L1210 leukemia ip, survival T/C
Assay: NCI In Vivo Anticancer Drug Screen. Data for tumor model L1210 Leukemia (intraperitoneal) in CD2F1 (CDF1) mice
Conditions: higher = longer survival
Summary of the method: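 Antitumor effect is scored in animals hosting a serially transplanted tumor. Values compare compound-dosed animals against vehicle-only controls as a simple quotient.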

[1] = endpoint: mean survival time, dose: 100.0 mg/kg/injection, schedule: Q01DX009 (ip), vehicle: saline with Tween-80
[2] = endpoint: mean survival time, dose: 200.0 mg/kg/injection, schedule: Q01DX009 (ip), vehicle: saline with Tween-80
[3] = endpoint: mean survival time, dose: 400.0 mg/kg/injection, schedule: Q01DX009 (ip), vehicle: saline with Tween-80

Measured: T/C

N[C@@H](Cc1ccc(N(CCCl)CCCl)cc1)C(=O)O
active: endpoint: mean survival time, dose: 2.0 mg/kg/injection, schedule: Q01DX007 (ip), vehicle: saline 166 % of control | endpoint: mean survival time, dose: 2.0 mg/kg/injection, schedule: Q01DX009 (ip), vehicle: water 153 % of control | endpoint: mean survival time, dose: 2.5 mg/kg/injection, schedule: Q01DX009 (ip), vehicle: saline 166 % of control | endpoint: mean survival time, dose: 2.5 mg/kg/injection, schedule: Q04DX003 (ip), vehicle: saline 153 % of control | endpoint: mean survival time, dose: 3.0 mg/kg/injection, schedule: Q01DX009 (ip), vehicle: Klucel (hydroxypropylcellulose) (HPC) 164 % of control | endpoint: mean survival time, dose: 4.0 mg/kg/injection, schedule: Q01DX007 (ip), vehicle: saline 168 % of control | endpoint: mean survival time, dose: 4.0 mg/kg/injection, schedule: Q01DX009 (ip), vehicle: water 155 % of control and 208 % of control | endpoint: mean survival time, dose: 4.0 mg/kg/injection, schedule: Q03DX003 (ip), vehicle: saline 170 % of control | endpoint: mean survival time, dose: 4.0 mg/kg/injection, schedule: Q## X010 (ip), vehicle: saline 160 % of control | endpoint: mean survival time, dose: 4.5 mg/kg/injection, schedule: Q04DX003 (ip), vehicle: saline 152 % of control | endpoint: mean survival time, dose: 5.0 mg/kg/injection, schedule: Q01DX009 (ip), vehicle: saline 198 % of control | endpoint: mean survival time, dose: 6.0 mg/kg/injection, schedule: Q04DX003 (ip), vehicle: saline 158 % of control | endpoint: mean survival time, dose: 7.5 mg/kg/injection, schedule: Q01DX001 (ip), vehicle: saline 158 % of control | endpoint: mean survival time, dose: 7.5 mg/kg/injection, schedule: Q01DX009 (ip), vehicle: saline 198 % of control | endpoint: mean survival time, dose: 7.5 mg/kg/injection, schedule: Q04DX003 (ip), vehicle: saline 198 % of control and 266 % of control | endpoint: mean survival time, dose: 8.0 mg/kg/injection, schedule: Q01DX001 (ip), vehicle: DMSO 180 % of control | endpoint: mean survival time, dose: 8.0 mg/kg/injection, schedule: Q01DX001 (ip), vehicle: Klucel (hydroxypropylcellulose) (HPC) 180 % of control | endpoint: mean survival time, dose: 8.0 mg/kg/injection, schedule: Q01DX001 (ip), vehicle: saline with Tween-80 165 % of control | endpoint: mean survival time, dose: 8.0 mg/kg/injection, schedule: Q03DX003 (ip), vehicle: saline 211 % of control | endpoint: mean survival time, dose: 9.0 mg/kg/injection, schedule: Q04DX003 (ip), vehicle: saline 217 % of control | endpoint: mean survival time, dose: 12.0 mg/kg/injection, schedule: Q04DX003 (ip), vehicle: saline 240 % of control | endpoint: mean survival time, dose: 16.0 mg/kg/injection, schedule: Q01DX001 (ip), vehicle: DMSO 221 % of control | endpoint: mean survival time, dose: 16.0 mg/kg/injection, schedule: Q01DX001 (ip), vehicle: Klucel (hydroxypropylcellulose) (HPC) 189 % of control | endpoint: mean survival time, dose: 16.0 mg/kg/injection, schedule: Q01DX001 (ip), vehicle: saline with Tween-80 265 % of control | endpoint: mean survival time, dose: 16.0 mg/kg/injection, schedule: Q## X016 (oral), vehicle: saline 164 % of control | endpoint: mean survival time, dose: 20.0 mg/kg/injection, schedule: Q01DX001 (ip), vehicle: saline 303 % of control and 427 % of control | endpoint: mean survival time, dose: 32.0 mg/kg/injection, schedule: Q01DX001 (ip), vehicle: other 217 % of control | endpoint: mean survival time, dose: 32.0 mg/kg/injection, schedule: Q01DX001 (ip), vehicle: saline with Tween-80 183 % of control | endpoint: median survival time, dose: 1.0 mg/kg/injection, schedule: Q01DX009 (ip), vehicle: saline 151 % of control | endpoint: median survival time, dose: 1.25 mg/kg/injection, schedule: Q01DX009 (ip), vehicle: saline 170 % of control | endpoint: median survival time, dose: 1.5 mg/kg/injection, schedule: Q04DX003 (ip), vehicle: Klucel (hydroxypropylcellulose) (HPC) 191 % of control | endpoint: median survival time, dose: 2.0 mg/kg/injection, schedule: Q01DX005 (ip), vehicle: saline 152 % of control | endpoint: median survival time, dose: 2.0 mg/kg/injection, schedule: Q01DX009 (ip), vehicle: saline 176 % of control | endpoint: median survival time, dose: 2.5 mg/kg/injection, schedule: Q01DX001 (ip), vehicle: Klucel (hydroxypropylcellulose) (HPC) 150 % of control and 195 % of control | endpoint: median survival time, dose: 2.5 mg/kg/injection, schedule: Q01DX009 (ip), vehicle: saline 205 % of control | endpoint: median survival time, dose: 3.0 mg/kg/injection, schedule: Q04DX003 (ip), vehicle: Klucel (hydroxypropylcellulose) (HPC) 182 % of control | endpoint: median survival time, dose: 3.75 mg/kg/injection, schedule: Q01DX009 (ip), vehicle: saline 158 % of control | endpoint: median survival time, dose: 4.0 mg/kg/injection, schedule: Q01DX005 (ip), vehicle: saline 176 % of control | endpoint: median survival time, dose: 4.0 mg/kg/injection, schedule: Q01DX009 (ip), vehicle: saline 227 % of control | endpoint: median survival time, dose: 5.0 mg/kg/injection, schedule: Q01DX009 (ip), vehicle: saline 357 % of control | endpoint: median survival time, dose: 8.0 mg/kg/injection, schedule: Q01DX005 (ip), vehicle: saline 211 % of control | endpoint: median survival time, dose: 8.0 mg/kg/injection, schedule: Q01DX009 (ip), vehicle: saline 234 % of control | endpoint: median survival time, dose: 12.0 mg/kg/injection, schedule: Q01DX001 (ip), vehicle: saline 183 % of control and 193 % of control
inactive: endpoint: mean survival time, dose: 0.25 mg/kg/injection, schedule: Q01DX009 (ip), vehicle: Klucel (hydroxypropylcellulose) (HPC) 106 % of control and 108 % of control | endpoint: mean survival time, dose: 0.25 mg/kg/injection, schedule: Q01DX009 (ip), vehicle: saline 106 % of control | endpoint: mean survival time, dose: 0.25 mg/kg/injection, schedule: Q04DX003 (ip), vehicle: saline 113 % of control | endpoint: mean survival time, dose: 0.5 mg/kg/injection, schedule: Q01DX009 (ip), vehicle: water 113 % of control and 112 % of control | endpoint: mean survival time, dose: 0.5 mg/kg/injection, schedule: Q04DX003 (ip), vehicle: saline 118 % of control | endpoint: mean survival time, dose: 0.75 mg/kg/injection, schedule: Q01DX009 (ip), vehicle: Klucel (hydroxypropylcellulose) (HPC) 115 % of control | endpoint: mean survival time, dose: 1.0 mg/kg/injection, schedule: Q01DX009 (ip), vehicle: water 115 % of control and 123 % of control | endpoint: mean survival time, dose: 1.0 mg/kg/injection, schedule: Q## X010 (oral), vehicle: saline 118 % of control | endpoint: mean survival time, dose: 2.0 mg/kg/injection, schedule: Q01DX001 (ip), vehicle: Klucel (hydroxypropylcellulose) (HPC) 118 % of control | endpoint: mean survival time, dose: 2.0 mg/kg/injection, schedule: Q01DX001 (ip), vehicle: other 108 % of control | endpoint: mean survival time, dose: 2.0 mg/kg/injection, schedule: Q01DX001 (ip), vehicle: saline with Tween-80 122 % of control | endpoint: mean survival time, dose: 2.0 mg/kg/injection, schedule: Q01DX005 (oral), vehicle: saline 121 % of control | endpoint: mean survival time, dose: 2.0 mg/kg/injection, schedule: Q## X016 (oral), vehicle: saline 103 % of control | endpoint: mean survival time, dose: 4.0 mg/kg/injection, schedule: Q01DX001 (ip), vehicle: Klucel (hydroxypropylcellulose) (HPC) 119 % of control | endpoint: mean survival time, dose: 4.0 mg/kg/injection, schedule: Q01DX001 (ip), vehicle: other 121 % of control | endpoint: mean survival time, dose: 4.0 mg/kg/injection, schedule: Q## X016 (oral), vehicle: saline 104 % of control | endpoint: mean survival time, dose: 8.0 mg/kg/injection, schedule: Q01DX009 (ip), vehicle: water 120 % of control and 108 % of control | endpoint: mean survival time, dose: 8.0 mg/kg/injection, schedule: Q## X010 (oral), vehicle: saline 96 % of control | endpoint: mean survival time, dose: 32.0 mg/kg/injection, schedule: Q01DX001 (ip), vehicle: Klucel (hydroxypropylcellulose) (HPC) 115 % of control | endpoint: median survival time, dose: 10.0 mg/kg/injection, schedule: Q01DX001 (ip), vehicle: Klucel (hydroxypropylcellulose) (HPC) 118 % of control | endpoint: median survival time, dose: 15.0 mg/kg/injection, schedule: Q01DX009 (ip), vehicle: saline 114 % of control and 105 % of control

CN(c1ccccc1)c1ccccc1
inactive: endpoint: mean survival time, dose: 100.0 mg/kg/injection, schedule: Q01DX001 (ip), vehicle: saline with Tween-80 94 % of control | endpoint: mean survival time, dose: 200.0 mg/kg/injection, schedule: Q01DX001 (ip), vehicle: saline with Tween-80 89 % of control

O=C1CC2C=CCC12 (stereo not given)
inactive: [1] 98 % of control | [2] 98 % of control | [3] 100 % of control

COc1ccc(C(C(N)=O)N2CCCC2)cc1 (stereo not given)
inactive: [1] 89 % of control | [2] 90 % of control

CCN(CC)CCNC(=O)C(O)(c1ccccc1)c1ccccc1
inactive: endpoint: mean survival time, dose: 50.0 mg/kg/injection, schedule: Q01DX009 (ip), vehicle: saline 98 % of control | endpoint: mean survival time, dose: 100.0 mg/kg/injection, schedule: Q01DX009 (ip), vehicle: saline 103 % of control

O=C(O)CC(=O)O.[NH-]C1CCCCC1C1CCCCC1[NH-].[Pt+2] (stereo not given)
inactive: endpoint: mean survival time, dose: 3.12 mg/kg/injection, schedule: Q04DX003 (ip), vehicle: distilled water + Tween-80 106 % of control | endpoint: mean survival time, dose: 6.25 mg/kg/injection, schedule: Q04DX003 (ip), vehicle: distilled water + Tween-80 112 % of control | endpoint: mean survival time, dose: 12.5 mg/kg/injection, schedule: Q04DX003 (ip), vehicle: distilled water + Tween-80 119 % of control
active: endpoint: mean survival time, dose: 50.0 mg/kg/injection, schedule: Q04DX003 (ip), vehicle: distilled water + Tween-80 165 % of control | endpoint: mean survival time, dose: 100.0 mg/kg/injection, schedule: Q04DX003 (ip), vehicle: distilled water + Tween-80 201 % of control | endpoint: mean survival time, dose: 200.0 mg/kg/injection, schedule: Q04DX003 (ip), vehicle: distilled water + Tween-80 194 % of control

Cc1cnccc1N=Nc1ccc(N(C)C)cc1
inactive: [1] 117 % of control | [2] 102 % of control | [3] 96 % of control

O=C(CCC(O)c1ccccc1)c1ccccc1 (stereo not given)
inactive: endpoint: mean survival time, dose: 50.0 mg/kg/injection, schedule: Q04DX002 (ip), vehicle: saline with Tween-80 97 % of control | endpoint: mean survival time, dose: 100.0 mg/kg/injection, schedule: Q04DX002 (ip), vehicle: saline with Tween-80 91 % of control | endpoint: mean survival time, dose: 200.0 mg/kg/injection, schedule: Q04DX002 (ip), vehicle: saline with Tween-80 91 % of control
